Biological target: USP1 (construct USP1 (I-785, GG670, 671AA)/UAF1 (I-677)-Flag) (Homo sapiens (Human), UniProt O94782, G670A/G671A)
Assay: Ubiquitin-Rhodamine 110 assay for USP1 activity
Assay type: biochemical
Conditions: USP1/UAF1 25 pM, Ub-Rh110 25 nM, 30 min preincubation
Protocol: Example 53: Ubitquin-Rhodamine 110 Assay for USP1 Activity
The HTS assay was performed in a final volume of 20 μL in assay buffer containing 20 mM Tris-HCl (pH 8.0, (1M Tris-HCl, pH 8.0 solution; Corning 46-031-CM)), 2 mM CaCl2 (1M Calcium Chloride solution; Sigma #21114) 1 mM GSH (L-Glutathione reduced; Sigma #G4251), 0.01% Prionex ([…] filtered, Sigma #G-0411), and 0.01% Triton X-100. Stock compound solutions were stored at −20° C. as 10 mM in DMSO. Up to 1 month prior to the assay, 2 mM test compounds were pre-dispensed into assay plates (Black, low volume; Corning #3820) and frozen at −20° C. Prestamped assay plates were allowed to come to room temperature on the day of the assay. For the screen, 100 nL of 2 mM was pre-dispensed for a final screening concentration of […] (DMSO(fc)=0.5%). The final concentration of the enzyme (USP1, construct USP1 (I-785, GG670, 671AA)/UAF1 (I-677)-Flag; Viva) in the assay was 100 pM. Final substrate (Ub-Rh110; Ubiquitin-Rhodamine 110, R&D Systems #U-555) concentration was 25 nM with [Ub-Rh110]<<Km. […] Plates were incubated stacked for 45 minutes at room temperature before fluorescence was read on the Envision (Excitation at 485 nm and Emission at 535 nm; Perkin Elmer) or on the PheraSTAR (Excitation at 485 nm and Emission at 535 nm; BMG Labtech)
Nanoliter quantities of either an 8-point or 10-point, 3-fold serial dilution in DMSO was pre-dispensed into assay plates (Perkin Elmer, ProxiPlate-384 F Plus, #6008269) for a final test concentration range of either 25 μM to 11 nM or 25 μM to 1.3 nM, respectively. The final concentration of the enzyme (USP1, construct USP1 (I-785, GG670, 671AA)/UAF1 (I-677)-Flag; Viva) in the assay was 25 pM. Final substrate (Ub-Rh110; Ubiquitin-Rhodamine 110, R&D Systems #U-555) concentration was 25 nM with [Ub-Rh110]<<Km. […] Plates were incubated stacked for 20 minutes at room temperature before 5 μL of stop solution (final concentration of 10 mM citric acid in assay buffer (Sigma, #251275-500G)). Fluorescence was read on the Envision (Excitation at 485 nm and Emission at 535 nm; Perkin Elmer) or on the PheraSTAR (Excitation at 485 nm and Emission at 535 nm; BMG Labtech).
For both assay formats data were reported as percent inhibition compared with control wells based on the following equation: % inh=[1−((FLU−AveLow)/(AveHigh−AveLow))]×100 where FLU=measured Fluorescence, AveLow=average Fluorescence of no enzyme control (n=16), and AveHigh=average Fluorescence of DMSO control (n=16). IC50 values were determined by curve fitting of the standard 4 parameter logistic fitting algorithm included in the Activity Base software package: IDBS XE Designer Model205. Data is fitted using the Levenburg Marquardt algorithm.

Sequence of USP1 (construct USP1 (I-785, GG670, 671AA)/UAF1 (I-677)-Flag) (O94782 whole entry G670A/G671A): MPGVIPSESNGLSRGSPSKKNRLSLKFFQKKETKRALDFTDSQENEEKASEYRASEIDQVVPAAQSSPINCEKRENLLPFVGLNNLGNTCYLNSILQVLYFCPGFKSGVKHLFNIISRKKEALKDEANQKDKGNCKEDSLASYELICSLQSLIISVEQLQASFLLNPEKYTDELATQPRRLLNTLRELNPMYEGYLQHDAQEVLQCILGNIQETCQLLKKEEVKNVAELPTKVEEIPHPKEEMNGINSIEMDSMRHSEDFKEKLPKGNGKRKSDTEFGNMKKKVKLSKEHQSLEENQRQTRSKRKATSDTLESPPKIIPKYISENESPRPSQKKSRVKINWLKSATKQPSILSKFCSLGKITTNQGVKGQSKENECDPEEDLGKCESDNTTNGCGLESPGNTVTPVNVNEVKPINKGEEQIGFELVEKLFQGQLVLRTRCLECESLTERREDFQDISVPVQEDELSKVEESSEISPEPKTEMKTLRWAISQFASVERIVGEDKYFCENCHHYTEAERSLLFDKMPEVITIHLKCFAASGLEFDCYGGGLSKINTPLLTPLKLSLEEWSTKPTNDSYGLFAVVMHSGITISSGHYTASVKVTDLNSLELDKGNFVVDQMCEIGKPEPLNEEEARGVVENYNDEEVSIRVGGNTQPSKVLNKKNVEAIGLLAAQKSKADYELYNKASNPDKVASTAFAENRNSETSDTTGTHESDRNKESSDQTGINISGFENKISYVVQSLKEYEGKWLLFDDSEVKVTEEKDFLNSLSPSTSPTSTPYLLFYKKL
Sequence of USP1 (construct USP1 (I-785, GG670, 671AA)/UAF1 (I-677)-Flag) (Q8TAF3 whole entry partner): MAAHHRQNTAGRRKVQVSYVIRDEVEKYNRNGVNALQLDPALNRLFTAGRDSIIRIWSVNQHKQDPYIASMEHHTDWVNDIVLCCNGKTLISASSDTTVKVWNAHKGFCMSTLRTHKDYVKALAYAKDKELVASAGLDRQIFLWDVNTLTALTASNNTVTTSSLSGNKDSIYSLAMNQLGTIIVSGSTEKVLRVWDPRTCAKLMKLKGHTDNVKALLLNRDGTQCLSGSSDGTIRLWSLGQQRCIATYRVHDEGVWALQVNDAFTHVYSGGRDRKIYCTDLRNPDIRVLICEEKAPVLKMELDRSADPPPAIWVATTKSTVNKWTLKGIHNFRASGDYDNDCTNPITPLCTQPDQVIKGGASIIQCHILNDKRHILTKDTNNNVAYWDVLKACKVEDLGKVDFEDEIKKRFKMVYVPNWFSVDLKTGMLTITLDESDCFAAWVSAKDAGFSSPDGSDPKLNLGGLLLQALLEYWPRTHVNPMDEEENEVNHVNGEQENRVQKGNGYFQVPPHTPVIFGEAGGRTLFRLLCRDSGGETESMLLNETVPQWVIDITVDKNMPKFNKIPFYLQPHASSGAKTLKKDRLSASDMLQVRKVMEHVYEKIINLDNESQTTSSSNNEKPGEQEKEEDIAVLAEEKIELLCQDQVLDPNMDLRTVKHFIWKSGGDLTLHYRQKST

Cn1cc(C(F)(F)F)nc1-c1ccc(Cn2c(=O)[nH]c3cnc(-c4cccnc4F)nc32)cc1 [Compound I-57, 2-(2-fluoropyridin-3-yl)-9-(4-(1-methyl-4-(trifluoromethyl)-1H-imidazol-2-yl)benzyl)-7,9-dihydro-8H-purin-8-one]
IC50: 200 to 2000 nM

Cc1cc(C(F)F)nn1-c1ccc(Cn2c(=O)[nH]c3cnc(-c4cccnc4C(C)C)nc32)cc1 [Compound I-58, 9-(4-(3-(difluoromethyl)-5-methyl-1H-pyrazol-1-yl)benzyl)-2-(2-isopropylpyridin-3-yl)-7,9-dihydro-8H-purin-8-one]
IC50: < 50 nM

CC(C)c1ncccc1-c1ncc2[nH]c(=O)n(Cc3ccc(-n4ccc(F)n4)cc3)c2n1 [Compound I-59, 9-(4-(3-fluoro-1H-pyrazol-1-yl)benzyl)-2-(2-isopropylpyridin-3-yl)-7,9-dihydro-8H-purin-8-one]
IC50: 50 to 200 nM

COc1cc(C(F)(F)F)nn1-c1ccc(Cn2c(=O)[nH]c3cnc(-c4cccnc4C(C)C)nc32)cc1 [Compound I-60, 2-(2-isopropylpyridin-3-yl)-9-(4-(5-methoxy-3-(trifluoromethyl)-1H-pyrazol-1-yl)benzyl)-7,9-dihydro-8H-purin-8-one]
IC50: < 50 nM

CCc1ncccc1-c1ncc2c(n1)n(Cc1ccc(-c3nc(C(F)(F)F)cn3C)cc1)c(=O)n2C [Compound I-61, 2-(2-ethylpyridin-3-yl)-7-methyl-9-(4-(1-methyl-4-(trifluoromethyl)-1H-imidazol-2-yl)benzyl)-7,9-dihydro-8H-purin-8-one]
IC50: 50 to 200 nM

Cc1ncccc1-c1ncc2c(n1)n(Cc1ccc(-c3nc(C(F)(F)F)cn3C)cc1)c(=O)n2C [Compound I-62, 7-methyl-9-(4-(1-methyl-4-(trifluoromethyl)-1H-imidazol-2-yl)benzyl)-2-(2-methylpyridin-3-yl)-7,9-dihydro-8H-purin-8-one]
IC50: 200 to 2000 nM

CC(C)c1ccccc1-c1ncc2c(n1)n(Cc1ccc(-c3nc(C(F)(F)F)cn3C)cc1)c(=O)n2C [Compound I-63, 2-(2-isopropylphenyl)-7-methyl-9-(4-(1-methyl-4-(trifluoromethyl)-1H-imidazol-2-yl)benzyl)-7,9-dihydro-8H-purin-8-one]
IC50: < 50 nM

Cn1cc(C(F)(F)F)nc1-c1ccc(Cn2c(=O)[nH]c3cnc(-c4cccnc4C(F)F)nc32)cc1 [Compound I-64, 2-(2-(difluoromethyl)pyridin-3-yl)-9-(4-(1-methyl-4-(trifluoromethyl)-1H-imidazol-2-yl)benzyl)-7,9-dihydro-8H-purin-8-one]
IC50: 50 to 200 nM

CC(C)c1c(F)cccc1-c1ncc2c(n1)n(Cc1ccc(-c3nc(C(F)(F)F)cn3C)cc1)c(=O)n2C [Compound I-65, 2-(3-fluoro-2-isopropylphenyl)-7-methyl-9-(4-(1-methyl-4-(trifluoromethyl)-1H-imidazol-2-yl)benzyl)-7,9-dihydro-8H-purin-8-one]
IC50: < 50 nM

Cc1nc(F)ccc1-c1ncc2c(n1)n(Cc1ccc(-c3nc(C(F)(F)F)cn3C)cc1)c(=O)n2C [Compound I-66, 2-(6-fluoro-2-methylpyridin-3-yl)-7-methyl-9-(4-(1-methyl-4-(trifluoromethyl)-1H-imidazol-2-yl)benzyl)-7,9-dihydro-8H-purin-8-one]
IC50: 200 to 2000 nM

CC(C)c1ncc(F)cc1-c1ncc2[nH]c(=O)n(Cc3ccc(-c4nc(C(F)(F)F)cn4C)cc3)c2n1 [Compound I-67, 2-(5-fluoro-2-isopropylpyridin-3-yl)-9-(4-(1-methyl-4-(trifluoromethyl)-1H-imidazol-2-yl)benzyl)-7,9-dihydro-8H-purin-8-one]
IC50: < 50 nM

Cc1cc(N2CCC2)nn1-c1ccc(Cn2c(=O)[nH]c3cnc(-c4cccnc4C(C)C)nc32)cc1 [Compound I-68, 9-(4-(3-(azetidin-1-yl)-5-methyl-1H-pyrazol-1-yl)benzyl)-2-(2-isopropylpyridin-3-yl)-7,9-dihydro-8H-purin-8-one]
IC50: 50 to 200 nM

CC(C)c1ncc(F)cc1-c1ncc2c(n1)n(Cc1ccc(-c3nc(C(F)(F)F)cn3C)cc1)c(=O)n2C [Compound I-69, 2-(5-fluoro-2-isopropylpyridin-3-yl)-7-methyl-9-(4-(1-methyl-4-(trifluoromethyl)-1H-imidazol-2-yl)benzyl)-7,9-dihydro-8H-purin-8-one]
IC50: < 50 nM

Cn1cc(C(F)(F)F)nc1-c1ccc(Cn2c(=O)n(C)c3cnc(-c4cccnc4C4CC4)nc32)cc1 [Compound I-71, 2-(2-cyclopropylpyridin-3-yl)-7-methyl-9-(4-(1-methyl-4-(trifluoromethyl)-1H-imidazol-2-yl)benzyl)-7,9-dihydro-8H-purin-8-one]
IC50: < 50 nM

Cn1cc(C(F)(F)F)nc1-c1ccc(Cn2c(=O)n(C)c3cnc(-c4cccnc4C(F)F)nc32)cc1 [Compound I-72, 2-(2-(difluoromethyl)pyridin-3-yl)-7-methyl-9-(4-(1-methyl-4-(trifluoromethyl)-1H-imidazol-2-yl)benzyl)-7,9-dihydro-8H-purin-8-one]
IC50: 200 to 2000 nM

COc1ccc(-c2ncc3[nH]c(=O)n(Cc4ccc(-c5nc(C(F)(F)F)cn5C)cc4)c3n2)c(C)n1 [Compound I-73, 2-(6-methoxy-2-methylpyridin-3-yl)-9-(4-(1-methyl-4-(trifluoromethyl)-1H-imidazol-2-yl)benzyl)-7,9-dihydro-8H-purin-8-one]
IC50: < 50 nM

CC(C)Oc1ccc(-c2ncc3[nH]c(=O)n(Cc4ccc(-c5nc(C(F)(F)F)cn5C)cc4)c3n2)c(F)n1 [Compound I-74, 2-(2-fluoro-6-isopropoxypyridin-3-yl)-9-(4-(1-methyl-4-(trifluoromethyl)-1H-imidazol-2-yl)benzyl)-7,9-dihydro-8H-purin-8-one]
IC50: 200 to 2000 nM

COc1ccc(-c2ncc3[nH]c(=O)n(Cc4ccc(-c5nc(C(F)(F)F)cn5C)cc4)c3n2)c(F)n1 [Compound I-75, 2-(2-fluoro-6-methoxypyridin-3-yl)-9-(4-(1-methyl-4-(trifluoromethyl)-1H-imidazol-2-yl)benzyl)-7,9-dihydro-8H-purin-8-one]
IC50: 50 to 200 nM

CC(C)c1ncccc1-c1ncc2[nH]c(=O)n(Cc3ccc(-c4nc(C(F)(F)F)cn4C4CC4)cc3)c2n1 [Compound I-76, 9-(4-(1-cyclopropyl-4-(trifluoromethyl)-1H-imidazol-2-yl)benzyl)-2-(2-isopropylpyridin-3-yl)-7,9-dihydro-8H-purin-8-one]
IC50: < 50 nM

CC(C)c1ncccc1-c1ncc2[nH]c(=O)n(Cc3ccc(-n4nc(C(F)(F)F)cc4N4CCOCC4)cc3)c2n1 [Compound I-77, 2-(2-isopropylpyridin-3-yl)-9-(4-(5-morpholino-3-(trifluoromethyl)-1H-pyrazol-1-yl)benzyl)-7,9-dihydro-8H-purin-8-one]
IC50: < 50 nM

COc1cc(C)n(-c2ccc(Cn3c(=O)[nH]c4cnc(-c5cccnc5C(C)C)nc43)cc2)n1 [Compound I-78, 2-(2-isopropylpyridin-3-yl)-9-(4-(3-methoxy-5-methyl-1H-pyrazol-1-yl)benzyl)-7,9-dihydro-8H-purin-8-one]
IC50: < 50 nM

CC(C)c1ncccc1-c1ncc2[nH]c(=O)n([C@H](C)c3ccc(-c4nc(C(F)(F)F)cn4C)cc3)c2n1 [Compound I-79, (R)-2-(2-isopropylpyridin-3-yl)-9-(1-(4-(1-methyl-4-(trifluoromethyl)-1H-imidazol-2-yl)phenyl)ethyl)-7,9-dihydro-8H-purin-8-one]
IC50: < 50 nM

CC(C)c1ncccc1-c1ncc2[nH]c(=O)n([C@@H](C)c3ccc(-c4nc(C(F)(F)F)cn4C)cc3)c2n1 [Compound I-80, (S)-2-(2-isopropylpyridin-3-yl)-9-(1-(4-(1-methyl-4-(trifluoromethyl)-1H-imidazol-2-yl)phenyl)ethyl)-7,9-dihydro-8H-purin-8-one]
IC50: < 50 nM

CC(C)c1ncccc1-c1ncc2[nH]c(=O)n(Cc3cc(F)c(-c4nc(C(F)(F)F)cn4C)c(F)c3)c2n1 [Compound I-82, 9-(3,5-difluoro-4-(1-methyl-4-(trifluoromethyl)-1H-imidazol-2-yl)benzyl)-2-(2-isopropylpyridin-3-yl)-7,9-dihydro-8H-purin-8-one]
IC50: < 50 nM
